US7037656B2, “Methods and compositions for identifying ligands for nuclear receptors” (priority 2000, dated 2006)

How the values were obtained:
Experiment in all cases: Yeast 6x EcRE-lacZ β-galactosidase transactivation assay
Dm ΔN EcR + RXRγ + GRIP1 = biological target: T1, Dm ΔN EcR + RXRγ + GRIP1 (Drosophila melanogaster, UniProt P34021); type: cell-based, Drosophila melanogaster; mouse; details: RH 5992 10 μM, 4 hours, DMSO control 0.364
T1 construct: ubiquitin (human, 76 aa) (N, cleaved yes); expressed in transfected cells
Procedure: (§1) The human RXR α (Genbank accession number X52773), mouse RXR β (Genbank accession number X66224) or mouse RXR γ (Genebank accession number X66225) subtypes were expressed in yeast-E. coli multicopy 2μ expression plasmids under regulation of CUP1 promoter with the LEU2 selective marker (1).
(§2) Briefly, yeast cells are cultured in 5 mL of YPD liquid medium overnight at 30° C. The cell culture was diluted 1:20 in YPD media and further grown until cell density reached an O.D of 0.6. at OD600. The cells were pelleted by centrifugation and washed with 10 mL of TE+0.1M lithium acetate. Cells are then resuspended in 10 mL TE+0.1M lithium acetate and incubated at 30° C. for 1 hour. Cells are collected and resuspended in 0.5 mL of TE+ 0.1M lithium acetate. […]
Using the transformation method set forth above, yeast were co-transformed with a reporter gene as shown in FIG. 2 and the expression vector encoding the full-length D. melanogaster ecdysone receptor, DmEcR (FIG. 3A) in the presence or absence of the Dm EcR heterodimer partner, DmUSP (FIG. 4A). […] As the N-terminal portion of the Dm EcR receptor is reported to play a role in ligand independent transactivation, an expression vector containing an N-terminal deletion in the EcR was constructed (see FIG. 3B) and assessed in the β-galactosidase assays described above. […]

[1] = tested on: Aa ΔA/B EcR + RXRβ + GRIP1; type: cell-based, Aedes aegypti; mouse; details: RH 5992 10 μM, 4 hours, DMSO control 0.231
Procedure: as §1, §2
(§3) Using the transformation method described above, yeast were co-transformed with a reporter gene as shown in FIG. 2 and the expression vector encoding the full-length Aedes aegypti ecdysone receptor, Aa EcR (FIG. 7A) in the presence or absence of the Aa EcR heterodimer partner, Aa USP (a or b form, FIGS. 8A and 8B respectively). […] As the N-terminal portion of the AaEcR receptor is reported to play a role in ligand independent transactivation, an expression vector containing an N-terminal deletion in the Aa EcR was constructed (see FIG. 7B) and assessed in the β-galactosidase assays described above. […]

[2] = biological target: T2, Aa ΔA/B EcR + RXRγ + GRIP1 (Aedes aegypti, UniProt P49880); type: cell-based, Aedes aegypti; mouse; details: RH 5992 10 μM, 4 hours, DMSO control 0.496
T2 construct: ubiquitin (human, 76 aa) (N, cleaved yes); expressed in transfected cells
Procedure: as §1, §2, §3

T2 sequence (P49880 with tags, fused parts or gaps): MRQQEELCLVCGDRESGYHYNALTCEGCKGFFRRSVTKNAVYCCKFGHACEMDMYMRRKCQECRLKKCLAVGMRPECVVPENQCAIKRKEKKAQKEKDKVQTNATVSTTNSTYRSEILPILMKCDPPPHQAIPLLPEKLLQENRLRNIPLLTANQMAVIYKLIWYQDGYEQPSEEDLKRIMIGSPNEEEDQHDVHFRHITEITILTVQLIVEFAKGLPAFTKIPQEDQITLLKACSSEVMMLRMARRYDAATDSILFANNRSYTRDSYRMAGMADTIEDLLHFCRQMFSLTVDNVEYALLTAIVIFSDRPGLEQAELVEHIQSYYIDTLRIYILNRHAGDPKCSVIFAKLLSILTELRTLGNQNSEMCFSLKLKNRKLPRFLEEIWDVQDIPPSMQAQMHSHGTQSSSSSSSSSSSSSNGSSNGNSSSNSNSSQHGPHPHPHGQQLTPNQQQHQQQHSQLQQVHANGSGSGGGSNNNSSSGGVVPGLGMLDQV
T2 sequence (P28705 whole entry partner): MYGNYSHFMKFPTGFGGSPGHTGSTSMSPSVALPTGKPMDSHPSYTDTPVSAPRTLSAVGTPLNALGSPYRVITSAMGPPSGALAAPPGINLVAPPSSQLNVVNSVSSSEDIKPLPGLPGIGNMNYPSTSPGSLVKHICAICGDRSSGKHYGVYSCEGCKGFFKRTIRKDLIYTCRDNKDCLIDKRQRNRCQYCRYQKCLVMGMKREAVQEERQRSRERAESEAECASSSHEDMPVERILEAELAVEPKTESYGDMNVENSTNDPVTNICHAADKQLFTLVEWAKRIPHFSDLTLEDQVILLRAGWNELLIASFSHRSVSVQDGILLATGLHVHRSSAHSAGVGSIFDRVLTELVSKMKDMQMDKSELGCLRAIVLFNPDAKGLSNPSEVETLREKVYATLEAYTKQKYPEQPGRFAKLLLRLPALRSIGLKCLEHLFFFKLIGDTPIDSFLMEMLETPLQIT
T1 sequence (P34021 221-878 limits assumed, stated change not applied): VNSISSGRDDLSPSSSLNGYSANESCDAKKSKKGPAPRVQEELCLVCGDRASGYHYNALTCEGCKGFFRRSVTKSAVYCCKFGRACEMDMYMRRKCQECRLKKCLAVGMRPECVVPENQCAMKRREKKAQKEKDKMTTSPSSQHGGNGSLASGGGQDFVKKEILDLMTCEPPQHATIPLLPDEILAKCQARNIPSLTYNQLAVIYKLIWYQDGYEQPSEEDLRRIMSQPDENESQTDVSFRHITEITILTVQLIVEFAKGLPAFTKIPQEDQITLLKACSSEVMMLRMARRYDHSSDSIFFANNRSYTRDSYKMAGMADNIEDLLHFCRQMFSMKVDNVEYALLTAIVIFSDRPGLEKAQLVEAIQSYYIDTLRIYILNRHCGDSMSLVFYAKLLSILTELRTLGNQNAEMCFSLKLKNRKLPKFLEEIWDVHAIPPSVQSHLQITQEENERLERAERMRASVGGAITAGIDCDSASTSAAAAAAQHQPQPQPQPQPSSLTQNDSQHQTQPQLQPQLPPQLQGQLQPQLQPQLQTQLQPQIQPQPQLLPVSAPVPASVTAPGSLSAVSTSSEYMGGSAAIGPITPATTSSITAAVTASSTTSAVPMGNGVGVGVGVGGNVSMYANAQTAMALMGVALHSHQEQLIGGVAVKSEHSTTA
T1 sequence (P28705 whole entry partner): as the sequence (P28705 whole entry partner) above
T1 sequence (Q61026 322-1121 partner limits assumed): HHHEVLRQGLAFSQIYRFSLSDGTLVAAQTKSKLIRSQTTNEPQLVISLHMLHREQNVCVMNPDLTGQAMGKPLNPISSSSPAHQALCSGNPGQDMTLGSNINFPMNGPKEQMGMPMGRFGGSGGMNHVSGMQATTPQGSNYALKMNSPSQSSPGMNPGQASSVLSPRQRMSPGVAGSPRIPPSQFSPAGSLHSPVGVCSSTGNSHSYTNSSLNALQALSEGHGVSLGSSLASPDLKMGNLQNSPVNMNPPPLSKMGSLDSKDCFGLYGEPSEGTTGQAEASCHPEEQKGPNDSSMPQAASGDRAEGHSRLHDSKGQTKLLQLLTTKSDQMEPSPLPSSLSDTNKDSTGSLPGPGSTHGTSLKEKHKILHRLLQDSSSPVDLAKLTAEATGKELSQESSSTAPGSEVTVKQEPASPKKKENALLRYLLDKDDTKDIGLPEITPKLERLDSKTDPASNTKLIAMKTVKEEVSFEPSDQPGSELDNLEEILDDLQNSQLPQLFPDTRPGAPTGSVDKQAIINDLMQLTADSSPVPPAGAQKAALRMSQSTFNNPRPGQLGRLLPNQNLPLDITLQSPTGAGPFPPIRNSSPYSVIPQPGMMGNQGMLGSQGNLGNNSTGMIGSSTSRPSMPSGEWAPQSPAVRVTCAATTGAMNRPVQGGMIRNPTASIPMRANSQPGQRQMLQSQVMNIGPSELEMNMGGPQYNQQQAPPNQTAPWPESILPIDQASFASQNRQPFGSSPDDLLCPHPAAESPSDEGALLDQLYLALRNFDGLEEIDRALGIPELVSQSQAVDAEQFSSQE

CCc1ccc(C(=O)NN(C(=O)c2cc(C)cc(C)c2)C(C)(C)C)cc1 [RH 5992, tebufenozide] gave a β-galactosidase activity (Dm ΔN EcR + RXRγ + GRIP1) of 1.283, a β-galactosidase activity [1] of 1.983 and a β-galactosidase activity [2] of 2.666.
